Where a SMILES comes first, the peptide text is derived from it. Bridges are numbered along the chain shown (N, C = ends). [ ]: non-standard residue; d: D form. The star is where a group is joined. Bip = N[C@@H](Cc1ccc(-c2ccccc2)cc1)C(=O)O; Cha = N[C@@H](CC1CCCCC1)C(=O)O; Carboxymethyl = O=C(O)C*; NMeA = CN[C@@H](C)C(=O)O; Orn = NCCC[C@H](N)C(=O)O; Aun = NCCCCCCCCCCC(=O)O; Dab = NCC[C@H](N)C(=O)O; AEEA = NCCOCCOCC(=O)O

T1 sequence (Q15116 25-288): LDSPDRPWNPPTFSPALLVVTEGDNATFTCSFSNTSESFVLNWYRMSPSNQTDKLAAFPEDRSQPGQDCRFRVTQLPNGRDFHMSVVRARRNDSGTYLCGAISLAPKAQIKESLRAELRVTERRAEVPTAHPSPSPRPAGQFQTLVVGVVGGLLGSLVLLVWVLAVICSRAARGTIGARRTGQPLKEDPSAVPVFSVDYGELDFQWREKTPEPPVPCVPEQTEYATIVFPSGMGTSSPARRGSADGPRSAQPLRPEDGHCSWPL

The assay has as its target T1, PD-1/PD-L1 interaction (PE-labeled human PD-L1-Ig binding to Jurkat cell line over-expressing human PD-1) (Homo sapiens, UniProt Q15116).
T1 construct: expressed in transfected cells; host or cells: Jurkat
Kind of assay: Jurkat-PD-1 Cell Binding High-Content Screening Assay (CBA). As to conditions: Jurkat-hPD-1 cells, PE-labeled PD-L1-Ig 20 nM final; read-out: Jurkat HPD1 PDL1 IC50. The method in brief:
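Read-out: high-content imaging of cell-bound PE fluorescence, with Hoechst 33342 nuclear counterstain after paraformaldehyde fixation. Before labeled ligand (20 nM final, 1 h) was added, compound sat on the cells for 2 h at 37 °C in DMEM/10% FCS.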
As usually defined, the IC50 is the point on the concentration scale where inhibition reaches its midpoint. `CC(C)C[C@H]1NC(=O)[C@H](C)N(C)C(=O)[C@H](Cc2ccc(OCC(=O)O)cc2)NC(=O)[C@H](Cc2ccc(-c3ccccc3)cc2)NC(=O)[C@H](Cc2ccc(OCC(=O)O)cc2)NC(=O)[C@H](Cc2c[nH]c3ccccc23)NC(=O)[C@H](CC(=O)O)NC(=O)[C@H](Cc2ccc(OCC(=O)O)cc2)NC(=O)[C@H]([C@@H](C)O)NC(=O)CSC[C@@H](C(=O)N[C@@H](CCN)C(=O)NCCOCCOCC(=O)NCCCCCCCCCCC(=O)O)NC(=O)[C@H](CCC(=O)O)NC(=O)[C@H](C(C)C)NC(=O)[C@H](CC2CCCCC2)NC(=O)[C@H](CCN)NC1=O` [Example 1392] ({CH2CO}-TY(Carboxymethyl)DWY(Carboxymethyl)[Bip]Y(Carboxymethyl)[NMeA][dL][Dab][Cha]VEC[Dab][AEEA][Aun]-OH; thioether N-14): the half-maximal inhibitory concentration (IC50) was 62.5 nM. To `CC(C)C[C@H]1NC(=O)[C@H](C)N(C)C(=O)[C@H](Cc2ccc(OCC(=O)O)cc2)NC(=O)[C@H](Cc2ccc(-c3ccccc3)cc2)NC(=O)[C@H](Cc2ccc(OCC(=O)O)cc2)NC(=O)[C@H](Cc2c[nH]c3ccccc23)NC(=O)[C@H](CC(=O)O)NC(=O)[C@H](Cc2ccc(OCC(=O)O)cc2)NC(=O)[C@H]([C@@H](C)O)NC(=O)CSC[C@@H](C(=O)N[C@@H](CCN)C(=O)NCCOCCOCC(=O)NCCCCCCCCCCC(=O)O)NC(=O)[C@H](CC(N)=O)NC(=O)[C@H](C(C)C)NC(=O)[C@H](CC2CCCCC2)NC(=O)[C@H](CCN)NC1=O` [Example 1393] ({CH2CO}-TY(Carboxymethyl)DWY(Carboxymethyl)[Bip]Y(Carboxymethyl)[NMeA][dL][Dab][Cha]VNC[Dab][AEEA][Aun]-OH; thioether N-14) belongs 33.1 nM; to `CC(C)C[C@H]1NC(=O)[C@H](C)N(C)C(=O)[C@H](Cc2ccc(OCC(=O)O)cc2)NC(=O)[C@H](Cc2ccc(-c3ccccc3)cc2)NC(=O)[C@H](Cc2ccc(OCC(=O)O)cc2)NC(=O)[C@H](Cc2c[nH]c3ccccc23)NC(=O)[C@H](CC(=O)O)NC(=O)[C@H](Cc2ccc(OCC(=O)O)cc2)NC(=O)[C@H]([C@@H](C)O)NC(=O)CSC[C@@H](C(=O)N[C@@H](CCCN)C(=O)NCCOCCOCC(=O)NCCCCCCCCCCC(=O)O)NC(=O)[C@H]([C@@H](C)O)NC(=O)[C@H](C(C)C)NC(=O)[C@H](CC2CCCCC2)NC(=O)[C@H](CCN)NC1=O` [Example 1394] ({CH2CO}-TY(Carboxymethyl)DWY(Carboxymethyl)[Bip]Y(Carboxymethyl)[NMeA][dL][Dab][Cha]VTC[Orn][AEEA][Aun]-OH; thioether N-14), 143 nM; to `CC(C)C[C@H]1NC(=O)[C@H](C)N(C)C(=O)[C@H](Cc2ccc(OCC(=O)O)cc2)NC(=O)[C@H](Cc2ccc(-c3ccccc3)cc2)NC(=O)[C@H](Cc2ccc(OCC(=O)O)cc2)NC(=O)[C@H](Cc2c[nH]c3ccccc23)NC(=O)[C@H](CC(=O)O)NC(=O)[C@H](Cc2ccc(OCC(=O)O)cc2)NC(=O)[C@H]([C@@H](C)O)NC(=O)CSC[C@@H](C(=O)N[C@@H](CCCN)C(=O)NCCOCCOCC(=O)NCCCCCCCCCCC(=O)O)NC(=O)[C@H](CO)NC(=O)[C@H](C(C)C)NC(=O)[C@H](CC2CCCCC2)NC(=O)[C@H](CCN)NC1=O` [Example 1395] ({CH2CO}-TY(Carboxymethyl)DWY(Carboxymethyl)[Bip]Y(Carboxymethyl)[NMeA][dL][Dab][Cha]VSC[Orn][AEEA][Aun]-OH; thioether N-14), 56.5 nM. To `CC(C)C[C@H]1NC(=O)[C@H](C)N(C)C(=O)[C@H](Cc2ccc(OCC(=O)O)cc2)NC(=O)[C@H](Cc2ccc(-c3ccccc3)cc2)NC(=O)[C@H](Cc2ccc(OCC(=O)O)cc2)NC(=O)[C@H](Cc2c[nH]c3ccccc23)NC(=O)[C@H](CC(=O)O)NC(=O)[C@H](Cc2ccc(OCC(=O)O)cc2)NC(=O)[C@H]([C@@H](C)O)NC(=O)CSC[C@@H](C(=O)N[C@@H](CCCN)C(=O)NCCOCCOCC(=O)NCCCCCCCCCCC(=O)O)NC(=O)[C@H](CCC(=O)O)NC(=O)[C@H](C(C)C)NC(=O)[C@H](CC2CCCCC2)NC(=O)[C@H](CCN)NC1=O` [Example 1396] ({CH2CO}-TY(Carboxymethyl)DWY(Carboxymethyl)[Bip]Y(Carboxymethyl)[NMeA][dL][Dab][Cha]VEC[Orn][AEEA][Aun]-OH; thioether N-14) belongs 304 nM; to `CC(C)C[C@H]1NC(=O)[C@H](C)N(C)C(=O)[C@H](Cc2ccc(OCC(=O)O)cc2)NC(=O)[C@H](Cc2ccc(-c3ccccc3)cc2)NC(=O)[C@H](Cc2ccc(OCC(=O)O)cc2)NC(=O)[C@H](Cc2c[nH]c3ccccc23)NC(=O)[C@H](CC(=O)O)NC(=O)[C@H](Cc2ccc(OCC(=O)O)cc2)NC(=O)[C@H]([C@@H](C)O)NC(=O)CSC[C@@H](C(=O)N[C@@H](CCCN)C(=O)NCCOCCOCC(=O)NCCCCCCCCCCC(=O)O)NC(=O)[C@H](CC(N)=O)NC(=O)[C@H](C(C)C)NC(=O)[C@H](CC2CCCCC2)NC(=O)[C@H](CCN)NC1=O` [Example 1397] ({CH2CO}-TY(Carboxymethyl)DWY(Carboxymethyl)[Bip]Y(Carboxymethyl)[NMeA][dL][Dab][Cha]VNC[Orn][AEEA][Aun]-OH; thioether N-14), 123 nM. Then `CC(C)C[C@H]1NC(=O)[C@H](C)N(C)C(=O)[C@H](Cc2ccc(OCC(=O)O)cc2)NC(=O)[C@H](Cc2ccc(-c3ccccc3)cc2)NC(=O)[C@H](Cc2ccc(OCC(=O)O)cc2)NC(=O)[C@H](Cc2c[nH]c3ccccc23)NC(=O)[C@H](CC(=O)O)NC(=O)[C@H](Cc2ccc(OCC(=O)O)cc2)NC(=O)[C@H]([C@@H](C)O)NC(=O)CSC[C@@H](C(=O)N[C@@H](CCN)C(=O)NCCOCCOCC(=O)NCCCCCCCCCCC(=O)O)NC(=O)[C@H]([C@@H](C)O)NC(=O)[C@H](C(C)C)NC(=O)[C@H](CC2CCCCC2)NC(=O)[C@H](CCC(=O)O)NC1=O` [Example 1398] ({CH2CO}-TY(Carboxymethyl)DWY(Carboxymethyl)[Bip]Y(Carboxymethyl)[NMeA][dL]E[Cha]VTC[Dab][AEEA][Aun]-OH; thioether N-14), with 85.5 nM; and `CC(C)C[C@H]1NC(=O)[C@H](C)N(C)C(=O)[C@H](Cc2ccc(OCC(=O)O)cc2)NC(=O)[C@H](Cc2ccc(-c3ccccc3)cc2)NC(=O)[C@H](Cc2ccc(OCC(=O)O)cc2)NC(=O)[C@H](Cc2c[nH]c3ccccc23)NC(=O)[C@H](CC(=O)O)NC(=O)[C@H](Cc2ccc(OCC(=O)O)cc2)NC(=O)[C@H]([C@@H](C)O)NC(=O)CSC[C@@H](C(=O)N[C@@H](CCN)C(=O)NCCOCCOCC(=O)NCCCCCCCCCCC(=O)O)NC(=O)[C@H](CO)NC(=O)[C@H](C(C)C)NC(=O)[C@H](CC2CCCCC2)NC(=O)[C@H](CCC(=O)O)NC1=O` [Example 1399] ({CH2CO}-TY(Carboxymethyl)DWY(Carboxymethyl)[Bip]Y(Carboxymethyl)[NMeA][dL]E[Cha]VSC[Dab][AEEA][Aun]-OH; thioether N-14), with 68.8 nM. For `CC(C)C[C@H]1NC(=O)[C@H](C)N(C)C(=O)[C@H](Cc2ccc(OCC(=O)O)cc2)NC(=O)[C@H](Cc2ccc(-c3ccccc3)cc2)NC(=O)[C@H](Cc2ccc(OCC(=O)O)cc2)NC(=O)[C@H](Cc2c[nH]c3ccccc23)NC(=O)[C@H](CC(=O)O)NC(=O)[C@H](Cc2ccc(OCC(=O)O)cc2)NC(=O)[C@H]([C@@H](C)O)NC(=O)CSC[C@@H](C(=O)N[C@@H](CCN)C(=O)NCCOCCOCC(=O)NCCCCCCCCCCC(=O)O)NC(=O)[C@H](CCCN)NC(=O)[C@H](C(C)C)NC(=O)[C@H](CC2CCCCC2)NC(=O)[C@H](CCC(=O)O)NC1=O` [Example 1400] ({CH2CO}-TY(Carboxymethyl)DWY(Carboxymethyl)[Bip]Y(Carboxymethyl)[NMeA][dL]E[Cha]V[Orn]C[Dab][AEEA][Aun]-OH; thioether N-14), the IC50 was 306 nM.
